Each structure is given as a SMILES string.

For test [1], the system named is ACh level in the rat hippocampus. Nature of the test: Microdialysis, ACh levels in the rat hippocampus in vivo. The note with it: for AUC, Area % under the curve / Peak, maximal % increase of ACh release over baseline / time of Peak after administration / Duration, minutes of release above statistical significance: Table IV. Further details: species or system rat (male Wistar). As to the method: Male Wistar Rats are anaesthetized and guide cannulas stereotaxically implanted into the brain at the level of the dorsal hippocampus. Following a minimum recovery period of 72 h, dialysis probes (0.5 mm diameter, 4.0 mm long, from BAS) are inserted into the hippocampus through the guide cannulas. The probes are perfused at a rate of 2 μl/min with artificial cerebrospinal fluid containing 100 μM physostigmine sulfate (a cholinesterase inhibitor). Rats are allowed to acclimate for 2 hours prior to sample collection. Dialysate samples are collected every 20 min (40 μl) and immediately injected onto a high performance liquid chromatograph equipped for electrochemical detection (HPLC-EC) of acetylcholine (ACh). Following collection of 3 baseline samples, drugs or vehicle control are administered in 0.01 ml/g body weight and dialysate samples are collected for an additional 3 h. The ACh peak heights of the 3 samples prior to drug administration are averaged together to determine baseline ACh levels. ACh peak heights post drug administration are measured and used to determine percent change over baseline ACh levels. At the end of experiments, probe placement is verified histologically.
ACh is separated by reverse phase chromatography (Hamilton PRP-1 column 150×4.5 mm) and converted to acetate, betaine and hydrogen peroxide on an immobilized enzyme reactor column (BAS). Hydrogen peroxide is then detected electrochemically. Mobile phase for the chromatography consists of 0.2M Na2 HPO4, 0.1 mM EDTA, 0.5 mM SOS, 0.9 mM TMA.Cl, with pH adjusted to 8.0 with phosphoric acid and […] Kathon CG (ESA) added to each liter of mobile phase to retard bacterial growth.
FIGS. 1 and 2 show the effects of fluorine substitution to the pendant groups of the anthrone and azafluorene core series on the ability of compounds to increase the level of ACh in the rat hippocampus in vivo. All compounds were tested at 5 mg/kg except Ex. No 64 which was administered at 1 mg/kg. […] This was observed even though the compound was administered by a route (i.p.) which should lead to greater bioavailability than the oral route. Example 68 of the present invention, the bis-fluorinated analog of Example 611 or U.S. Pat. No. 5,173,489, on the other hand, led to a 2-fold increase in ACh levels which was maintained for over 1 hour (FIG. 1). The anthrone compound Ex. No. 440 of U.S. Pat. No. 5,173,489, at 5 mg/kg, led to a peak ACh level of 72% over baseline (FIG. 2). Ex. No. 64 of the present invention, which is the bis-fluoro analog of Ex. No. 440 of U.S. Pat. No. 5,173,489, at 1 mg/kg, led to a delayed increase in ACh levels reaching a peak of over 100% above baseline (FIG. 2). In contrast to the observed effects of Example 440 of U.S. Pat. No. 5,173,489, the increase in ACh level after administration of Example 64 of the present invention was maintained for the entire duration of testing (3 hours).

Test [2] deals with stimulus-induced acetylcholine release, slices from the parietal cortex. As to the kind of experiment: Neurotransmitter (ACh) release assay, rat cortex slices, K+ stimulated. It counts as cell-based, rat (male Wistar). To be noted: for EC50: Table III; for activation at 10 µM: Table II, % increase of drug-induced ACh release. As to the method: The neurotransmitter release activities of the compounds of this invention were determined using standard biochemical assay procedures for example, the neurotransmitter release assay as described below.
Neurotransmitter release assay.
The neurotransmitter (Ach) release activities of the compounds of this invention were determined by the assay as described by Nickolson, et al., Drug Development Research, (1990) 19: 285-300, a modification of the procedure described by Mulder, et al., Brain Res., (1974) 70: 372.
Male Wistar rats (Charies River) weighing 175-200 grams were used. Rats were decapitated and brains were dissected immediately. Slices (0.3 mm thick) from the parietal cortex were prepared (approximately 100 mg wet weight) and were incubated in 10 ml KrebsRinger medium (KR) containing NaCl (116 mM), KCl (3 mM), CaCl2 (1.3 mM), MgCl2 (1.2 mM), KH2 PO4 (1.2 mM), Na2 SO4 (1.2 mM), NaHCO3 (25.0 mM), and glucose (11.0 mM), to which was added 10 uCi ^3 H-choline (specific activity approximately 35 Ci/mM; NEN) and […] unlabeled choline to give a final concentration of one micromole. The brain preparations were incubated for 30 min. at 37° C. under a steady flow of 95% O2 /5% CO2. Under these conditions, part of the radioactive choline taken up by the preparation was converted into radioactive acetylcholine (ACh) by the cholinergic nerve endings stored in synaptic vesicles, and released upon depolarization by high potassium ion (K+) containing media.
After labelling of the ACh stores, the slices were washed three times with non-radioactive KR medium and transferred to a superfusion apparatus to measure the drug effects on ACh release. The superfusion apparatus consisted of 10 thermostated glass columns of 5 mm diameter that were provided with GF/F glass fiber filters to support the slices (approximately 10 mg tissue/column). Superfusion was carried out in KR-medium (0.3 ml/min.) containing […] hemicholine-3 (HC-3). The HC-3 prevents the reuptake of choline formed during the superfusion from phospholipids and released ACh, which would be converted into unlabeled ACh and released in preference to the preformed labeled ACh. The medium was delivered by a 25-channel peristaltic pump (Ismatec by Brinkman) and warmed to 37° C. in a thermostated stainless steel coil before entering the superfusion column. Each column was provided with a 4-way slider valve (Beckmann instruments) which allowed rapid change of low to high K+/KR-medium, and with two 10-channel 3-way valves that were used to change from drug-free to drug-containing low and high K+/KR-medium. After 15 min. of washout of non-specifically bound radioactivity, collection of 4 min. fractions was initiated. After three 4 min. collections, the original medium was changed to a KR-medium in which the KCl concentration had been increased to 25 mM (high K+ medium) (S1). Depolarization-induced stimulation of release by high K+/KR-medium lasted for 4 min. Drug free low and high K+/KR-media were then substituted by drug- and vehicle-containing low- and high-K+/KR-medium, and superfusion was continued for three 4 min. collections with low K+/KR-medium, one 4 min. collection with high K+/KR-medium (s2), and two 4 min. collections with low K+/KR-medium.
Drug was added to the media by 100-fold dilutions of appropriate concentrations of the drug (in 0.9% saline) with either low- or high-K+/KR-medium. For comparative purposes, linopirdine was also run.
All superfusion fractions were collected in liquid scintillation counting vials. After superfusion, the slices were removed from the superfusion columns and extracted with 1.0 ml of 0.1N HCl. Liquiscint (NEN) counting fluid (12 ml) was added to superfusion fractions and extracts, and the samples were counted in a Packard Tricarb Liquid Scintillation Counter. No corrections were made for quenching. […]

Test [3] has as its system memory disruption induced by hypoxia, male CD rats. Nature of the test: Rat Passive Avoidance (PA) Hypoxia Induced Amnesia. In kind it is in vivo, rat (male CD). The note with it: Table II; SC; median retention latency vs vehicle.
From the text: Rat Passive Avoidance (PA) Hypoxia Induced Amnesia:
Unfasted male CD rats, weighing between 165-210 grams, were trained in a PA apparatus using the following procedure: rats were placed in the clear side of the two compartment chamber and allowed 90 seconds to enter the dark compartment. Ten seconds after entering the dark chamber, a 3 second footshock (1.0 mA) was applied to the grid floor followed by an additional 10 second delay, and another 3 second footshock was applied. Retentions were tested 4 hours later. The rats were allowed 300 seconds to enter the dark compartment; time was taken. Memory disruption was induced by exposing the rats to a gas mixture containing 6.5% oxygen supplemented with nitrogen for 30 minutes before passive avoidance training. Doses of the test compound were administered (0.1 ml/100 g, SC.) relative to time of PA training.
Setting [4] is: 5 mg/kg, vehicle methocel, NSP = no significant points.
Where [5] appears, read: 1 mg/kg, vehicle methocel, NSP = no significant points.
The mark [6] stands for this setting: 5 mg/kg, vehicle water, NSP = no significant points.

As usually defined, the EC50 is the concentration at which the effect is half-maximal. Read a low EC50 as higher potency in that assay. As to `Fc1cc(CC2(Cc3ccncc3)c3ccccc3Oc3ccccc32)ccn1` [Example 65, 9-((2-Fluoro-4-pyridinyl)methyl)-9-(4-pyridinylmethyl)-9H-xanthene], in test [1] (5 mg/kg, vehicle methocel), the “AUC, Area % under the curve” value was determined as 147 ± 69%; the “Peak, maximal % increase of ACh release over baseline” value (shortened to “Peak, maximal % increase”) came to 40 ± 11%; the “time of Peak after administration” value was 20 min. Moreover, in test [1] (setting [4]), the “Duration, minutes of release above statistical significance” value is 60 min. The concentration for a half-maximal effect (EC50) in test [2] was found to be 820 nM.

Consider `Fc1cc(CC2(Cc3ccnc(F)c3)c3ccccc3-c3nc(-c4ccccc4)ncc32)ccn1` [Example 76, 5,5-Bis((2-fluoro-4-pyridinyl)methyl)-2-phenyl-5H-indeno[1,2-d]pyrimidine], for which, in test [1] (5 mg/kg, vehicle methocel), the “AUC, Area % under the curve” value stood at 96 ± 67%; the “Peak, maximal % increase” value was 39 ± 25%; the “time of Peak after administration” value is 20 min. For the same compound, the “Duration, minutes of release above statistical significance” value in test [1] (setting [4]) was “NSP”. The EC50 in test [2] is 660 nM.

As to `Fc1cc(CC2(Cc3ccnc(F)c3)c3ccccc3Oc3ncccc32)ccn1` [Example 67, 9,9-Bis((2-fluoro-4-pyridinyl)methyl)-4-azaxanthene], in test [1] (1 mg/kg, vehicle methocel), the “AUC, Area % under the curve” value was determined as 666 ± 212%; the “Peak, maximal % increase” value stood at 123 ± 62%; the “time of Peak after administration” value was 200 min. The “Duration, minutes of release above statistical significance” value in test [1] (setting [5]) is “>”. Further, in test [1] (5 mg/kg, vehicle methocel), the “AUC, Area % under the curve” value came out at 1423 ± 595%; the “Peak, maximal % increase” value came to 199 ± 80%; the “time of Peak after administration” value stood at 160 min. The “Duration, minutes of release above statistical significance” value in test [1] (setting [4]) is recorded as “>”. In addition, the EC50 in test [2] worked out at 640 nM.

Take `COc1ccc2c(c1)C(Cc1ccnc(F)c1)(Cc1ccnc(F)c1)c1cccnc1O2` [Example 72, 9,9-Bis((2-fluoro-4-pyridinyl)methyl)-7-methoxy-4-azaxanthene]: in test [1] (5 mg/kg, vehicle methocel), the “AUC, Area % under the curve” value was 138 ± 109%; the “Peak, maximal % increase” value amounted to 34 ± 22%; the “time of Peak after administration” value was 60 min. The “Duration, minutes of release above statistical significance” value in test [1] (setting [4]) is “NSP”. Further, the midpoint of the response in test [2], the EC50, lay at 850 nM.

For `Fc1cc(CC2(Cc3ccnc(F)c3)c3cccnc3-c3ncccc32)ccn1` [Example 97, 5,5-Bis((2-fluoro-4-pyridinyl)methyl)-5H-cyclopenta[2,1-b:3,4-b']dipyridine], in test [1] (10 mg/kg, vehicle methocel), the “AUC, Area % under the curve” value is recorded as 649 ± 188%; the “Duration, minutes of release above statistical significance” value was 120 min; the “Peak, maximal % increase” value is 102 ± 29%; the “time of Peak after administration” value worked out at 100 min. This compound gave an EC50 in test [2] of 2620 nM.

With `Fc1cc(CC2(Cc3ccnc(F)c3)c3ccccc3-c3ncccc32)ccn1` [Example 68, 5,5-Bis((2-fluoro-4-pyridinyl)methyl)-5H-indeno[1,2-b]pyridine], the “increase in ACh levels” value in test [1] (5 mg/kg oral, FIG. 1) is 2 fold. Further, in test [1] (5 mg/kg oral, FIG. 1), the “time for which the increase in ACh levels was maintained” value is reported as “over 1 hour”. For the same compound, the “AUC, Area % under the curve” value in test [1] (1 mg/kg, vehicle methocel) is 304 ± 88%; in test [1] (2 mg/kg, vehicle water), 240 ± 82%; in test [1] (5 mg/kg, vehicle methocel) it was 942 ± 324%; in test [1] (5 mg/kg, vehicle water), 871 ± 272%. Besides, the “Peak, maximal % increase” value was 74 ± 29% in test [1] (1 mg/kg, vehicle methocel); 47 ± 12% in test [1] (2 mg/kg, vehicle water); 201 ± 68% in test [1] (5 mg/kg, vehicle methocel); 121 ± 25% in test [1] (5 mg/kg, vehicle water). Further, the “time of Peak after administration” value in test [1] (1 mg/kg, vehicle methocel) was determined as 100 min; in test [1] (2 mg/kg, vehicle water), 40 min; in test [1] (5 mg/kg, vehicle methocel) it was 80 min; in test [1] (5 mg/kg, vehicle water), 100 min. Besides, the “Duration, minutes of release above statistical significance” value in test [1] (setting [5]) is 120 min; in test [1] (setting [4]), over 80 min; in test [1] (setting [6]), 120 min. Also, in test [2], it took 760 nM to reach a half-maximal effect (EC50).

On to `Fc1cc(CC2(Cc3ccncc3)c3ccccc3-c3ncccc32)ccn1` (stereo not drawn) [Example 62], for which, in test [1] (5 mg/kg, vehicle water), the “AUC, Area % under the curve” value is reported as 160 ± 187%; the “Peak, maximal % increase” value is on record as 47 ± 32%; the “time of Peak after administration” value was found to be 40 min. In addition, the “Duration, minutes of release above statistical significance” value in test [1] (setting [6]) is “NSP”. For the same compound, in test [1] (10 mg/kg, vehicle water), the “AUC, Area % under the curve” value is on record as 221 ± 85%; the “Duration, minutes of release above statistical significance” value is over 40 min; the “Peak, maximal % increase” value is 52 ± 10%; the “time of Peak after administration” value is 20 min. In test [2], this compound registered an EC50 of 300 nM.

Consider `Fc1cc(CC2(Cc3ccncc3)c3ccccc3-c3sccc32)ccn1` (stereo not drawn) [Example 7, 2-Fluoro-4-[4-(4-pyridinylmethyl)-4H-indeno[1,2-B]thiophen-4-ylmethyl]-pyridine], for which, in test [1] (5 mg/kg, vehicle water), the “AUC, Area % under the curve” value turned out to be 235 ± 87%; the “Peak, maximal % increase” value amounted to 53 ± 19%; the “time of Peak after administration” value was 180 min. Also, the “Duration, minutes of release above statistical significance” value in test [1] (setting [6]) is “NSP”. Besides, the activation at 10 µM in test [2] is 439%.

As for `c1ccc(Cn2ncc3c2-c2ccccc2C3(Cc2ccncc2)Cc2ccncc2)cc1` [Example 14, 1,4-Dihydro-1-(phenylmethyl)-4,4-bis(4-pyridinylmethyl)indeno[1,2-C]pyrazol], in test [3], the “PA Hypoxia” value is recorded as “Active”. For the same compound, the activation at 10 µM in test [2] amounted to 533%.
